For 26 compounds, EC50 and Ki results are on record in patent publication US10501421B1, “Substituted benzimidazoles as modulators of Ras signaling” (VANDERBILT UNIVERSITY, priority 2017, dated 2019).

A value given as a limit tells only on which side of the number the result lay.

In test [1] the target is Ras GEF SOS (Son of Sevenless) (Homo sapiens, UniProt Q07889). Description: SOS-mediated nucleotide exchange on Ras (BODIPY-GDP fluorescence). Type of test: biochemical. As to conditions: SOS-mediated exchange of BODIPY-GDP for GTP on Ras. The procedure, abridged: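 Exchange rates were taken from single-exponential fits of the fluorescence time course as BODIPY-GDP on Ras was replaced by GTP. Compound went in first, then GTP and SOS. Mean rates plotted against concentration gave EC50 by four-parameter dose-response fitting.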
Sequence of Ras GEF SOS (Son of Sevenless) (P01112 1-166 partner limits assumed, one chain of several): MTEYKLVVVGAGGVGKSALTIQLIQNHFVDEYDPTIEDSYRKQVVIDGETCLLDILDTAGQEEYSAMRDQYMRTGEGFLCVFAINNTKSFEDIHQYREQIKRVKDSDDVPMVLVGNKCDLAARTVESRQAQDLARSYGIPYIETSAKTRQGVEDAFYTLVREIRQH

In the next test the target is T1, Son of Sevenless (SOS) (Homo sapiens, UniProt Q07889).
T1 sequence (Q07889 564-1049 limits assumed): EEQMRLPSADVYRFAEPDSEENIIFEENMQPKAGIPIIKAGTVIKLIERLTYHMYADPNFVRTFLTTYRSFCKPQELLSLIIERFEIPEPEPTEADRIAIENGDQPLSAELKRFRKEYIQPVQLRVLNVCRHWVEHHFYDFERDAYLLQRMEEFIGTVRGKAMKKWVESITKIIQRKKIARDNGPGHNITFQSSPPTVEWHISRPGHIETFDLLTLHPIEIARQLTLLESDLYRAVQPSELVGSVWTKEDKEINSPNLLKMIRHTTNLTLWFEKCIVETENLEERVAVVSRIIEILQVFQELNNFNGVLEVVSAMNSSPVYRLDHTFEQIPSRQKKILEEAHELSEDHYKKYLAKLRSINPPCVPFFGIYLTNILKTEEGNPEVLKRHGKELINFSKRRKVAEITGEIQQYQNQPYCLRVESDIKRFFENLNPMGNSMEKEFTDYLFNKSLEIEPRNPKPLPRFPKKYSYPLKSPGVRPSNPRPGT
Description: Binding to SOS, fluorescence polarization anisotropy (FPA) probe displacement. As to conditions: displacement of FITC-conjugated probe (Example 285), affinity calculated from IC50. The procedure, abridged:
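Test compounds were titrated against SOS pre-bound to a fluorescein-labelled probe, with anisotropy plotted versus compound concentration. Binding affinities were derived from IC50 values obtained by four-parameter dose-response fitting.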

Usually EC50 stands for the midpoint of the concentration-response curve. A low value points to a more potent agent. A word on the Ki: it is the dissociation constant of the complex between target and ligand, obtained from inhibition or displacement. In test [1], `Cc1cc(Cn2c(NCCN)nc3c(N4CCC(N)CC4)cc(Cl)cc32)cc(C)c1F` [Example 298, N^1-(4-(4-aminopiperidin-1-yl)-6-chloro-1-(4-fluoro-3,5-dimethylbenzyl)-1H-benzo[d]imidazol-2-yl)ethane-1,2-diamine] came in with an EC50 of less than 1000 nM. On Son of Sevenless (SOS), the Ki is less than 500 nM.

`Cc1cc(Cn2c(NCCN)nc3c(N4CCNCC4)cc(Cl)cc32)cc(C)c1F` [Example 299, N^1-(6-chloro-1-(4-fluoro-3,5-dimethylbenzyl)-4-(piperazin-1-yl)-1H-benzo[d]imidazol-2-yl)ethane-1,2-diamine] gave an EC50 in test [1] of less than 1000 nM. Besides, at Son of Sevenless (SOS), the inhibition constant (Ki) is less than 500 nM.

On to `Cc1cc(Cn2c(NCCN)nc3c(N4CCN(C)CC4)cc(Cl)cc32)cc(C)c1F` [Example 300, N^1-(6-chloro-1-(4-fluoro-3,5-dimethylbenzyl)-4-(4-methylpiperazin-1-yl)-1H-benzo[d]imidazol-2-yl)ethane-1,2-diamine], for which the EC50 in test [1] is less than 1000 nM. Besides, the Ki on Son of Sevenless (SOS) was less than 500 nM.

In test [1], `Cc1cc(Cn2c(NCC3CNC3)nc3c(N4CCN(C)CC4)cc(Cl)cc32)cc(C)c1F` [Example 301, N-(azetidin-3-ylmethyl)-6-chloro-1-(4-fluoro-3,5-dimethylbenzyl)-4-(4-methylpiperazin-1-yl)-1H-benzo[d]imidazol-2-amine] yielded a concentration for a half-maximal effect (EC50) of 1000 to 5000 nM. Besides, the Ki at Son of Sevenless (SOS) is less than 500 nM.

Compound `Cc1cc(Cn2c(NCC3CNC3)nc3c(C4=CCNCC4)cc(Cl)cc32)cc(C)c1F` [Example 302, N-(azetidin-3-ylmethyl)-6-chloro-1-(4-fluoro-3,5-dimethylbenzyl)-4-(1,2,3,6-tetrahydropyridin-4-yl)-1H-benzo[d]imidazol-2-amine] yielded an EC50 in test [1] of less than 1000 nM. The Ki at Son of Sevenless (SOS) was 500 to 1000 nM.

As to `Cc1cc(Cn2c(NCCN)nc3c(C4=CCNCC4)cc(Cl)cc32)cc(C)c1F` [Example 303, N^1-(6-chloro-1-(4-fluoro-3,5-dimethylbenzyl)-4-(1,2,3,6-tetrahydropyridin-4-yl)-1H-benzo[d]imidazol-2-yl)ethane-1,2-diamine], the EC50 in test [1] is less than 1000 nM. On Son of Sevenless (SOS), the Ki was less than 500 nM.

`Cc1cc(Cn2c(N3CCNCC3)nc3c(C4=CCNCC4)cc(Cl)cc32)cc(C)c1F` [Example 304, 6-chloro-1-(4-fluoro-3,5-dimethylbenzyl)-2-(piperazin-1-yl)-4-(1,2,3,6-tetrahydropyridin-4-yl)-1H-benzo[d]imidazole] registered an EC50 in test [1] of less than 1000 nM. In addition, the Ki at Son of Sevenless (SOS) is less than 500 nM.

Compound `Cc1cc(Cn2c(NCC3CNC3)nc3c(-c4ccccc4Cl)cc(Cl)cc32)cc(C)c1F` [Example 305, N-(azetidin-3-ylmethyl)-6-chloro-4-(2-chlorophenyl)-1-(4-fluoro-3,5-dimethylbenzyl)-1H-benzo[d]imidazol-2-amine] returned an EC50 in test [1] of less than 1000 nM. Besides, the Ki on Son of Sevenless (SOS) is less than 500 nM.

Turning to `Cc1cc(Cn2c(NCCN)nc3c(-c4ccccc4Cl)cc(Cl)cc32)cc(C)c1F` [Example 306, N^1-(6-chloro-4-(2-chlorophenyl)-1-(4-fluoro-3,5-dimethylbenzyl)-1H-benzo[d]imidazol-2-yl)ethane-1,2-diamine], in test [1], the EC50 lay within 1000 to 5000 nM. At Son of Sevenless (SOS), the Ki was less than 500 nM.

Turning to `Cc1cc(Cn2c(N3CCNCC3)nc3c(-c4ccccc4Cl)cc(Cl)cc32)cc(C)c1F` [Example 307, 6-chloro-4-(2-chlorophenyl)-1-(4-fluoro-3,5-dimethylbenzyl)-2-(piperazin-1-yl)-1H-benzo[d]imidazole], in test [1], the EC50 lay within 1000 to 5000 nM. The Ki at Son of Sevenless (SOS) was less than 500 nM.

As for `Cc1cc(Cn2c(NCCN)nc3c(-c4ccccc4OC(C)C)cc(Cl)cc32)cc(C)c1F` [Example 308, N^1-(6-chloro-1-(4-fluoro-3,5-dimethylbenzyl)-4-(2-isopropoxyphenyl)-1H-benzo[d]imidazol-2-yl)ethane-1,2-diamine], the EC50 in test [1] lay in the range of 1000 to 5000 nM. Besides, the Ki at Son of Sevenless (SOS) is less than 500 nM.

In the case of `Cc1cc(Cn2c(NCC3CNC3)nc3c(N4CCNCC4)cc(Cl)cc32)cc(C)c1F` [Example 309, N-(azetidin-3-ylmethyl)-6-chloro-1-(4-fluoro-3,5-dimethylbenzyl)-4-(piperazin-1-yl)-1H-benzo[d]imidazol-2-amine], the EC50 in test [1] is 1000 to 5000 nM. The Ki on Son of Sevenless (SOS) is less than 500 nM.

As to `Cc1cc(Cn2c(N3CCNCC3)nc3c(CC(=O)O)cc(Cl)cc32)cc(C)c1F` [Example 310, 2-(6-chloro-1-(4-fluoro-3,5-dimethylbenzyl)-2-(piperazin-1-yl)-1H-benzo[d]imidazol-4-yl)acetic acid], the half-maximal effective concentration (EC50) in test [1] is less than 1000 nM. Besides, on Son of Sevenless (SOS), the Ki is 500 to 1000 nM.

In test [1], `O=C(O)Cc1cc(Cl)cc2c1nc(N1CCNCC1)n2Cc1ccc(F)c(Cl)c1` [Example 311, 2-(6-chloro-1-(3-chloro-4-fluorobenzyl)-2-(piperazin-1-yl)-1H-benzo[d]imidazol-4-yl)acetic acid] had an EC50 of less than 1000 nM. Besides, the Ki at Son of Sevenless (SOS) is 1000 to 5000 nM.

Turning to `Cc1cc(Cn2c(N3CCNCC3)nc3c(N4CCOCC4)cc(Cl)cc32)cc(C)c1F` [Example 312, 4-(6-chloro-1-(4-fluoro-3,5-dimethylbenzyl)-2-(piperazin-1-yl)-1H-benzo[d]imidazol-4-yl)morpholine], in test [1], the EC50 was less than 1000 nM. On Son of Sevenless (SOS), the Ki was less than 500 nM.

In test [1], `Cc1cc(Br)c2nc(NCCN)n(Cc3cc(C)c(F)c(C)c3)c2c1` [Example 313, N^1-(4-bromo-1-(4-fluoro-3,5-dimethylbenzyl)-6-methyl-1H-benzo[d]imidazol-2-yl)ethane-1,2-diamine] showed an EC50 of 1000 to 5000 nM. Further, the Ki at Son of Sevenless (SOS) is 1000 to 5000 nM.

Regarding `Cc1cc(OC2CCNCC2)c2nc(N3CCNCC3)n(Cc3cc(C)c(F)c(C)c3)c2c1` [Example 315, 1-(4-fluoro-3,5-dimethylbenzyl)-6-methyl-2-(piperazin-1-yl)-4-(piperidin-4-yloxy)-1H-benzo[d]imidazole], the EC50 in test [1] is less than 1000 nM. For the same compound, at Son of Sevenless (SOS), the Ki is 1000 to 5000 nM.

`Cc1cc(OCCN2CCCC2)c2nc(N3CCNCC3)n(Cc3cc(C)c(F)c(C)c3)c2c1` [Example 316, 1-(4-fluoro-3,5-dimethylbenzyl)-6-methyl-2-(piperazin-1-yl)-4-(2-(pyrrolidin-1-yl)ethoxy)-1H-benzo[d]imidazole] registered an EC50 in test [1] of less than 1000 nM. Moreover, the Ki on Son of Sevenless (SOS) is 1000 to 5000 nM.

For the compound `Cc1cc(-c2ccc(CN)cc2)c2nc(N3CCNCC3)n(Cc3cc(C)c(F)c(C)c3)c2c1` [Example 318, (4-(1-(4-fluoro-3,5-dimethylbenzyl)-6-methyl-2-(piperazin-1-yl)-1H-benzo[d]imidazol-4-yl)phenyl)methanamine], in test [1], the EC50 was less than 1000 nM. Moreover, the inhibition constant Ki on Son of Sevenless (SOS) was less than 500 nM.

On to `Cc1cc(Cn2c(N3CCNCC3)nc3c(N4CCC(N)CC4)cc(Cl)cc32)cc(C)c1F` [Example 319, 1-(6-chloro-1-(4-fluoro-3,5-dimethylbenzyl)-2-(piperazin-1-yl)-1H-benzo[d]imidazol-4-yl)piperidin-4-amine], for which the EC50 in test [1] is less than 1000 nM. Moreover, the Ki at Son of Sevenless (SOS) is less than 500 nM.

In test [1], `Cc1cc(OCCN)c2nc(NCCN)n(Cc3cc(C)c(F)c(C)c3)c2c1` [Example 320, N^1-(4-(2-aminoethoxy)-1-(4-fluoro-3,5-dimethylbenzyl)-6-methyl-1H-benzo[d]imidazol-2-yl)ethane-1,2-diamine] displayed an EC50 of less than 1000 nM. Besides, the Ki on Son of Sevenless (SOS) was 500 to 1000 nM.

Regarding `Cc1cc(N2CCN(C)CC2)c2nc(N3CCNCC3)n(Cc3cc(C)c(F)c(C)c3)c2c1` [Example 322, 1-(4-fluoro-3,5-dimethylbenzyl)-6-methyl-4-(4-methylpiperazin-1-yl)-2-(piperazin-1-yl)-1H-benzo[d]imidazole], the EC50 in test [1] was less than 1000 nM. In addition, the Ki on Son of Sevenless (SOS) was less than 500 nM.

The compound `Cc1ccc2nc(N3CCNCC3)n(Cc3cc(C)c(F)c(C)c3)c2c1` [Example 323, 1-(4-fluoro-3,5-dimethylbenzyl)-6-methyl-2-(piperazin-1-yl)-1H-benzo[d]imidazole] gave a 50% effective concentration (EC50) in test [1] of less than 1000 nM. Also, at Son of Sevenless (SOS), the Ki is 1000 to 5000 nM.

Regarding `Cc1cc(OC2CCNC2)c2nc(N3CCNCC3)n(Cc3cc(C)c(F)c(C)c3)c2c1` (stereo not shown) [Example 327, 1-(4-fluoro-3,5-dimethylbenzyl)-6-methyl-2-(piperazin-1-yl)-4-(pyrrolidin-3-yloxy)-1H-benzo[d]imidazole], the EC50 in test [1] was less than 1000 nM. Further, on Son of Sevenless (SOS), the Ki was 500 to 1000 nM.

With `Cc1cc(OCC2CCNCC2)c2nc(NCCN)n(Cc3cc(C)c(F)c(C)c3)c2c1` [Example 330, N^1-(1-(4-fluoro-3,5-dimethylbenzyl)-6-methyl-4-(piperidin-4-ylmethoxy)-1H-benzo[d]imidazol-2-yl)ethane-1,2-diamine], the 50% effective concentration (EC50) in test [1] is less than 1000 nM. The Ki on Son of Sevenless (SOS) is 500 to 1000 nM.

`Cc1cc(OCCN2CCN(C)CC2)c2nc(NCCN)n(Cc3cc(C)c(F)c(C)c3)c2c1` [Example 331, N^1-(1-(4-fluoro-3,5-dimethylbenzyl)-6-methyl-4-(2-(4-methylpiperazin-1-yl)ethoxy)-1H-benzo[d]imidazol-2-yl)ethane-1,2-diamine]: the concentration for a half-maximal effect (EC50) in test [1] was less than 1000 nM. Besides, at Son of Sevenless (SOS), the Ki was 500 to 1000 nM.
